# Tested on: MV-4-11 cells
# Assay: Gene expression microarray analysis (Affymetrix PrimeView) and GSEA
# Format: cell-based, human
# Set-up: RFU PODN (11730768_x_at) / Fold change /veh PODN (11730768_x_at) / RFU LINC00158 (11744669_a_at) / Fold change /veh LINC00158 (11744669_a_at) / RFU DUSP10 (11751237_a_at) / Fold change /veh DUSP10 (11751237_a_at) / RFU ID3 (11757404_x_at) / Fold change /veh ID3 (11757404_x_at) / RFU PLEKHG5 (11737974_s_at) / Fold change /veh PLEKHG5 (11737974_s_at) / RFU LRRC4B (11730491_at) / Fold change /veh LRRC4B (11730491_at) / RFU GIMAP4 (11747438_a_at) / Fold change /veh GIMAP4 (11747438_a_at) / RFU KRT8 (11758183_x_at) / Fold change /veh KRT8 (11758183_x_at) / RFU CNN1 (11734310_a_at) / Fold change /veh CNN1 (11734310_a_at) / RFU VPS37D (11726825_at) / Fold change /veh VPS37D (11726825_at) / RFU C10orf10 (11716522_x_at) / Fold change /veh C10orf10 (11716522_x_at) / RFU KIR2DL2 /// KIR2DL4 /// KIR2DL5A /// KIR2DL5B /// KIR2DS1 /// KIR2DS2 /// KIR2DS3 /// KIR2DS4 /// KIR3DL3 /// KIR3DL3 /// KIR3DS1 (11738374_at) / Fold change /veh KIR2DL2 /// KIR2DL4 /// KIR2DL5A /// KIR2DL5B /// KIR2DS1 /// KIR2DS2 /// KIR2DS3 /// KIR2DS4 /// KIR3DL3 /// KIR3DL3 /// KIR3DS1 (11738374_at) / RFU C1QL1 (11718748_at) / Fold change /veh C1QL1 (11718748_at) / RFU TMPRSS4 (11747572_a_at) / Fold change /veh TMPRSS4 (11747572_a_at) / RFU HAMP (11756126_x_at) / Fold change /veh HAMP (11756126_x_at) / RFU RNFT2 (11725882_a_at) / Fold change /veh RNFT2 (11725882_a_at) / RFU NR4A2 (11747474_a_at) / Fold change /veh NR4A2 (11747474_a_at) / RFU ABCC12 (11746883_a_at) / Fold change /veh ABCC12 (11746883_a_at) / RFU TMEM136 (11760407_x_at) / Fold change /veh TMEM136 (11760407_x_at) / RFU CLDN22 /// WWC2 (11732394_at) / Fold change /veh CLDN22 /// WWC2 (11732394_at) / RFU HLA-DPB1 (11760878_x_at) / Fold change /veh HLA-DPB1 (11760878_x_at) / RFU SPINT1 (11716480_a_at) / Fold change /veh SPINT1 (11716480_a_at) / RFU GAP43 (11754022_s_at) / Fold change /veh GAP43 (11754022_s_at) / RFU A4GNT (11735810_at) / Fold change /veh A4GNT (11735810_at) / RFU PRB3 (11715151_x_at) / Fold change /veh PRB3 (11715151_x_at) / RFU TUBB4B (11761932_at) / Fold change /veh TUBB4B (11761932_at) / RFU CAPN14 (11732068_a_at) / Fold change /veh CAPN14 (11732068_a_at) / RFU TMCC2 (11721928_a_at) / Fold change /veh TMCC2 (11721928_a_at) / RFU IRGQ (11745062_a_at) / Fold change /veh IRGQ (11745062_a_at) / RFU FAM174B (11720279_a_at) / Fold change /veh FAM174B (11720279_a_at) / RFU TMPRSS4 (11748680_a_at) / Fold change /veh TMPRSS4 (11748680_a_at) / RFU FAM212B (11763350_a_at) / Fold change /veh FAM212B (11763350_a_at) / RFU PLEKHG5 (11743358_a_at) / Fold change /veh PLEKHG5 (11743358_a_at) / RFU ZSCAN30 (11745921_a_at) / Fold change /veh ZSCAN30 (11745921_a_at) / RFU CMKLR1 (11741424_a_at) / Fold change /veh CMKLR1 (11741424_a_at) / RFU LOC101060620 /// MAPK8IP1 (11723275_at) / Fold change /veh LOC101060620 /// MAPK8IP1 (11723275_at) / RFU SPTSSB (11747773_x_at) / Fold change /veh SPTSSB (11747773_x_at) / RFU PRSS12 (11739890_at) / Fold change /veh PRSS12 (11739890_at) / RFU BIN1 (11741810_x_at) / Fold change /veh BIN1 (11741810_x_at) / RFU WNT11 (11732464_a_at) / Fold change /veh WNT11 (11732464_a_at) / RFU C10orf10 (11716521_a_at) / Fold change /veh C10orf10 (11716521_a_at) / RFU C5orf56 (11738089_at) / Fold change /veh C5orf56 (11738089_at) / RFU CYB561 (11721691_x_at) / Fold change /veh CYB561 (11721691_x_at) / RFU ANKRD19P (11752326_a_at) / Fold change /veh ANKRD19P (11752326_a_at) / RFU OR2T12 /// OR2T33 /// OR2T8 (11738714_s_at) / Fold change /veh OR2T12 /// OR2T33 /// OR2T8 (11738714_s_at) / RFU VCAN (11748164_a_at) / Fold change /veh VCAN (11748164_a_at) / RFU JSRP1 (11732532_at) / Fold change /veh JSRP1 (11732532_at) / RFU KRTAP10-11 (11738290_x_at) / Fold change /veh KRTAP10-11 (11738290_x_at) / RFU MYO3A (11730013_a_at) / Fold change /veh MYO3A (11730013_a_at) / RFU EBF3 (11725865_a_at) / Fold change /veh EBF3 (11725865_a_at) / RFU CAMK2N1 (11719241_x_at) / Fold change /veh CAMK2N1 (11719241_x_at) / RFU C5orf56 (11738088_a_at) / Fold change /veh C5orf56 (11738088_a_at) / RFU OLFML3 (11715873_a_at) / Fold change /veh OLFML3 (11715873_a_at) / RFU LOC100653217 /// NTM (11731650_a_at) / Fold change /veh LOC100653217 /// NTM (11731650_a_at) / RFU MAPK11 (11762145_a_at) / Fold change /veh MAPK11 (11762145_a_at) / RFU FIZ1 (11724087_x_at) / Fold change /veh FIZ1 (11724087_x_at) / RFU OASL (11726364_x_at) / Fold change /veh OASL (11726364_x_at) / RFU SOX15 (11748057_x_at) / Fold change /veh SOX15 (11748057_x_at) / RFU CD79A (11719716_a_at) / Fold change /veh CD79A (11719716_a_at) / RFU HIST1H1D (11736915_at) / Fold change /veh HIST1H1D (11736915_at) / RFU CASKIN2 (11723855_a_at) / Fold change /veh CASKIN2 (11723855_a_at) / RFU LOC730098 (11760151_x_at) / Fold change /veh LOC730098 (11760151_x_at) / RFU OR4N2 (11742367_at) / Fold change /veh OR4N2 (11742367_at) / RFU PRRT2 (11749266_a_at) / Fold change /veh PRRT2 (11749266_a_at) / RFU SNX32 (11753110_a_at) / Fold change /veh SNX32 (11753110_a_at) / RFU CDHR5 (11726645_a_at) / Fold change /veh CDHR5 (11726645_a_at) / RFU RCAN1 (11760418_a_at) / Fold change /veh RCAN1 (11760418_a_at) / RFU FAM167A (11723789_a_at) / Fold change /veh FAM167A (11723789_a_at) / RFU FAM26E (11764081_at) / Fold change /veh FAM26E (11764081_at) / RFU ISYNA1 (11749810_s_at) / Fold change /veh ISYNA1 (11749810_s_at) / RFU ACY1 (11761880_at) / Fold change /veh ACY1 (11761880_at) / RFU 11764098_at / Fold change /veh 11764098_at / RFU SAMD14 (11745864_x_at) / Fold change /veh SAMD14 (11745864_x_at) / RFU NPB (11741838_a_at) / Fold change /veh NPB (11741838_a_at) / RFU TMPRSS6 (11731388_a_at) / Fold change /veh TMPRSS6 (11731388_a_at) / RFU KRTAP10-2 (11738614_at) / Fold change /veh KRTAP10-2 (11738614_at) / RFU ARHGAP8 /// PRR5-ARHGAP8 (11727945_x_at) / Fold change /veh ARHGAP8 /// PRR5-ARHGAP8 (11727945_x_at) / RFU KRTAP5-7 /// NADSYN1 (11734609_at) / Fold change /veh KRTAP5-7 /// NADSYN1 (11734609_at) / RFU RASL12 (11751679_a_at) / Fold change /veh RASL12 (11751679_a_at) / RFU CDKN2B (11736163_a_at) / Fold change /veh CDKN2B (11736163_a_at) / RFU PRF1 (11729649_at) / Fold change /veh PRF1 (11729649_at) / RFU, ZNF638 /// ZNF638-IT1 / Fold change vs veh, ZNF638 /// ZNF638-IT1 / RFU, PANK3 / Fold change vs veh, PANK3 / RFU, SH3YL1 / Fold change vs veh, SH3YL1 / RFU, ZEB2 / Fold change vs veh, ZEB2 / RFU, NRIP1 / Fold change vs veh, NRIP1 / RFU, PTTG1IP / Fold change vs veh, PTTG1IP / RFU, CAPN2 / Fold change vs veh, CAPN2 / RFU, MED14 / Fold change vs veh, MED14 / RFU, SNORA58 / Fold change vs veh, SNORA58 / RFU, C1orf63 / Fold change vs veh, C1orf63 / RFU, LRRFIP1 / Fold change vs veh, LRRFIP1 / RFU, NDUFAF7 / Fold change vs veh, NDUFAF7 / RFU, SLC12A2 / Fold change vs veh, SLC12A2 / RFU, IBTK / Fold change vs veh, IBTK / RFU, ESF1 / Fold change vs veh, ESF1 / Fold change vs veh, TMEM50B / RFU, TAOK1 / Fold change vs veh, TAOK1 / RFU, ACBD3 / Fold change vs veh, ACBD3 / RFU, TMA16 / Fold change vs veh, TMA16 / RFU, RWDD3 / Fold change vs veh, RWDD3 / RFU, BCAT1 / Fold change vs veh, BCAT1 / RFU, EDEM3 / Fold change vs veh, EDEM3 / RFU, TMEM33 / Fold change vs veh, TMEM33 / RFU, WDR75 / Fold change vs veh, WDR75 / RFU, AHCTF1 / Fold change vs veh, AHCTF1 / RFU, TFRC / Fold change vs veh, TFRC / RFU, ZDHHC17 / Fold change vs veh, ZDHHC17 / RFU, NOM1 / Fold change vs veh, NOM1 / RFU, ARL8B / Fold change vs veh, ARL8B / RFU, ZBTB11 / Fold change vs veh, ZBTB11 / RFU, TAMM41 / Fold change vs veh, TAMM41 / RFU, KIAA1704 /// LOC100996395 / Fold change vs veh, KIAA1704 /// LOC100996395 / RFU, ING1 / Fold change vs veh, ING1 / RFU, TRMT61B / Fold change vs veh, TRMT61B / RFU, FUBP3 / Fold change vs veh, FUBP3 / RFU, TP53 / Fold change vs veh, TP53 / RFU, TNKS2 / Fold change vs veh, TNKS2 / RFU, ZFP14 / Fold change vs veh, ZFP14 / RFU, ACTR2 / Fold change vs veh, ACTR2 / RFU, PPP3R1 / Fold change vs veh, PPP3R1 / RFU, PIK3R1 / Fold change vs veh, PIK3R1 / RFU, HNRNPA1 / Fold change vs veh, HNRNPA1 / RFU, RNF170 / Fold change vs veh, RNF170 / RFU, ZNF28 / Fold change vs veh, ZNF28 / RFU, RNGTT / Fold change vs veh, RNGTT / RFU, OGT / Fold change vs veh, OGT / RFU, BRD1 / Fold change vs veh, BRD1 / RFU, MARS / Fold change vs veh, MARS / RFU, ZNF655 / Fold change vs veh, ZNF655 / RFU, FAHD1 / Fold change vs veh, FAHD1 / RFU, BDP1 / Fold change vs veh, BDP1 / RFU, LRRCC1 / Fold change vs veh, LRRCC1 / RFU, ARID1A / Fold change vs veh, ARID1A / RFU, ZNF146 / Fold change vs veh, ZNF146 / RFU, ZNF330 / Fold change vs veh, ZNF330 / RFU, GPN3 / Fold change vs veh, GPN3 / RFU, C9orf123 / Fold change vs veh, C9orf123 / RFU, N4BP2L2 / Fold change vs veh, N4BP2L2 / RFU, ARFIP1 / Fold change vs veh, ARFIP1 / RFU, FAM179B / Fold change vs veh, FAM179B / RFU, BCL10 / Fold change vs veh, BCL10 / RFU, UHRF1BP1L / Fold change vs veh, UHRF1BP1L / RFU, BET1 / Fold change vs veh, BET1 / RFU, CNOT2 / Fold change vs veh, CNOT2 / RFU, ZNF268 / Fold change vs veh, ZNF268 / Fold change vs veh, ZNF507 / RFU, DGCR2 / Fold change vs veh, DGCR2 / RFU, WDSUB1 / Fold change vs veh, WDSUB1 / Fold change vs veh, HSP90B1 /// MIR3652 / RFU, ADSS / Fold change vs veh, ADSS / RFU, GK / Fold change vs veh, GK / RFU, ZNF148 / Fold change vs veh, ZNF148 / RFU, TAF9 / Fold change vs veh, TAF9 / RFU, SLC1A5 / Fold change vs veh, SLC1A5 / RFU, SLMO2 / Fold change vs veh, SLMO2 / RFU, ABCC4 / Fold change vs veh, ABCC4 / RFU, LOC101060439 /// RAP1B / Fold change vs veh, LOC101060439 /// RAP1B / RFU, RFX7 / Fold change vs veh, RFX7 / RFU, GTPBP10 / Fold change vs veh, GTPBP10 / RFU, CNEP1R1 / Fold change vs veh, CNEP1R1 / RFU, BIVM-ERCC5 /// ERCC5 / Fold change vs veh, BIVM-ERCC5 /// ERCC5 / RFU, ILF3 / Fold change vs veh, ILF3 / RFU 11762660_at / Fold change /veh 11762660_at / RFU VCAN (11757783_s_at) / Fold change /veh VCAN (11757783_s_at) / RFU DDX43 (11728927_at) / Fold change /veh DDX43 (11728927_at) / RFU KRT8 (11758188_x_at) / Fold change /veh KRT8 (11758188_x_at) / RFU NKD1 (11759106_at) / Fold change /veh NKD1 (11759106_at) / RFU SRD5A1 (11742802_a_at) / Fold change /veh SRD5A1 (11742802_a_at) / RFU TPSAB1 /// TPSB2 (11721975_s_at) / Fold change /veh TPSAB1 /// TPSB2 (11721975_s_at) / RFU GSTM3 (11746129_a_at) / Fold change /veh GSTM3 (11746129_a_at) / RFU IL23R (11737362_x_at) / Fold change /veh IL23R (11737362_x_at) / RFU TMEM51 (11727254_a_at) / Fold change /veh TMEM51 (11727254_a_at) / RFU PIWIL2 (11732686_x_at) / Fold change /veh PIWIL2 (11732686_x_at) / RFU ORM1 (11744905_x_at) / Fold change /veh ORM1 (11744905_x_at) / RFU CCDC152 (11743942_at) / Fold change /veh CCDC152 (11743942_at) / RFU ECM1 (11717891_a_at) / Fold change /veh ECM1 (11717891_a_at) / RFU IL23R (11748794_a_at) / Fold change /veh IL23R (11748794_a_at) / RFU TNFAIP8L3 (11732012_x_at) / Fold change /veh TNFAIP8L3 (11732012_x_at) / RFU MBOAT4 (11741988_at) / Fold change /veh MBOAT4 (11741988_at) / RFU 11764193_at / Fold change /veh 11764193_at / RFU TMEM53 (11763286_at) / Fold change /veh TMEM53 (11763286_at) / RFU MAGEB2 (11727129_at) / Fold change /veh MAGEB2 (11727129_at) / RFU TMEM200A (11744735_a_at) / Fold change /veh TMEM200A (11744735_a_at) / RFU CCDC152 (11751479_a_at) / Fold change /veh CCDC152 (11751479_a_at) / RFU FAM211A (11726209_a_at) / Fold change /veh FAM211A (11726209_a_at) / RFU RGS16 (11746705_a_at) / Fold change /veh RGS16 (11746705_a_at) / RFU VCAN (11755009_s_at) / Fold change /veh VCAN (11755009_s_at) / RFU RHOB (11743442_s_at) / Fold change /veh RHOB (11743442_s_at) / RFU RGS16 (11720943_a_at) / Fold change /veh RGS16 (11720943_a_at) / RFU RGS16 (11720944_at) / Fold change /veh RGS16 (11720944_at) / RFU, VPS4B / Fold change vs veh, VPS4B / RFU, CREB1 / Fold change vs veh, CREB1 / RFU, DNAJC13 / Fold change vs veh, DNAJC13 / RFU, GNAQ / Fold change vs veh, GNAQ / RFU, CDK5R1 / Fold change vs veh, CDK5R1 / RFU, ZRANB3 / Fold change vs veh, ZRANB3 / RFU, CUL4A / Fold change vs veh, CUL4A / RFU, CCNY / Fold change vs veh, CCNY / RFU, UFL1 / Fold change vs veh, UFL1 / RFU, COG3 / Fold change vs veh, COG3 / RFU, DIAPH2 / Fold change vs veh, DIAPH2 / RFU, SKA2 / Fold change vs veh, SKA2 / RFU, AFF3 / Fold change vs veh, AFF3 / RFU, LMF1 / Fold change vs veh, LMF1 / RFU, IPO11 / Fold change vs veh, IPO11 / RFU, DFFB / Fold change vs veh, DFFB / RFU, FOXP1 / Fold change vs veh, FOXP1 / RFU, CARD8 / Fold change vs veh, CARD8 / RFU, STRN3 / Fold change vs veh, STRN3 / RFU, ADK / Fold change vs veh, ADK / RFU, RASSF2 / Fold change vs veh, RASSF2 / RFU, WIPF1 / Fold change vs veh, WIPF1 / RFU, LARP1B / Fold change vs veh, LARP1B / RFU, RASA1 / Fold change vs veh, RASA1 / RFU, RB1 / Fold change vs veh, RB1 / RFU, PPFIA1 / Fold change vs veh, PPFIA1 / RFU, MAT2A / Fold change vs veh, MAT2A / RFU, CCT5 / Fold change vs veh, CCT5 / RFU, WDR92 / Fold change vs veh, WDR92 / RFU, CUX1 / Fold change vs veh, CUX1 / RFU, TTC7A / Fold change vs veh, TTC7A / RFU, TMEM135 / Fold change vs veh, TMEM135 / RFU, DEPTOR / Fold change vs veh, DEPTOR / RFU, CPM / Fold change vs veh, CPM / RFU, DNAJB6 / Fold change vs veh, DNAJB6 / RFU, CACNA2D3 / Fold change vs veh, CACNA2D3 / RFU, DTX4 / Fold change vs veh, DTX4 / RFU, TFCP2 / Fold change vs veh, TFCP2 / RFU, GMCL1 /// GMCL1P1 / Fold change vs veh, GMCL1 /// GMCL1P1 / RFU, AEBP2 / Fold change vs veh, AEBP2 / RFU, SNHG1 /// SNORD22 /// SNORD25 /// SNORD26 /// SNORD27 /// SNORD28 /// SNORD29 /// SNORD31 / Fold change vs veh, SNHG1 /// SNORD22 /// SNORD25 /// SNORD26 /// SNORD27 /// SNORD28 /// SNORD29 /// SNORD31 / Fold change (Aza/veh), C12orf56 (ProbeSet 11735607_a_at) / Fold change (ACY-1035/veh), C12orf56 (ProbeSet 11735607_a_at) / Fold change (Aza/veh), FGFR1OP (ProbeSet 11751329_s_at) / Fold change (ACY-1035/veh), FGFR1OP (ProbeSet 11751329_s_at) / Fold change (Aza/veh), VPS36 (ProbeSet 11739960_a_at) / Fold change (ACY-1035/veh), VPS36 (ProbeSet 11739960_a_at) / RFU SYPL1 (11715823_x_at) / Fold change /veh SYPL1 (11715823_x_at) / RFU IGFBP7 (11715501_s_at) / Fold change /veh IGFBP7 (11715501_s_at) / RFU REEP3 (11722064_at) / Fold change /veh REEP3 (11722064_at) / RFU IGLL1 (11728026_x_at) / Fold change /veh IGLL1 (11728026_x_at): dose or concentration left out as unconfirmed
# Conditions: MV-4-11 cells, 48 hours
structure (smiles),measurement,value
Nc1ncn([C@@H]2O[C@H](CO)[C@@H](O)[C@H]2O)c(=O)n1 [azacitidine],RFU IRGQ (11745062_a_at),24.06 RFU

# — PMC5218480 (PLoS ONE, 2017)
